Columns and labels:
[1] = molecular target: GDP-bound HRAS wild-type protein (Homo sapiens, UniProt P01112); assay: Binding to HRAS by surface plasmon resonance (SPR), Single Cycle Kinetics; conditions: SPR, GDP-bound HRAS wild-type vs GDP-bound KRAS wild-type
[2] = molecular target: GDP-bound NRAS wild-type protein (Homo sapiens, UniProt P01111); assay: Binding to NRAS by surface plasmon resonance (SPR), Single Cycle Kinetics; conditions: SPR, GDP-bound NRAS wild-type vs GDP-bound KRAS wild-type
Sequence of GDP-bound NRAS wild-type protein (P01111 whole entry): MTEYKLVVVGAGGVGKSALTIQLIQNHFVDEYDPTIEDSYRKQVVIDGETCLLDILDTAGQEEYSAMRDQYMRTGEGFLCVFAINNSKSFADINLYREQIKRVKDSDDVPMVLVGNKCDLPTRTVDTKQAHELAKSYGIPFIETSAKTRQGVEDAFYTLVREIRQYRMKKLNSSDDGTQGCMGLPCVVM

Sequence of GDP-bound HRAS wild-type protein (P01112 whole entry): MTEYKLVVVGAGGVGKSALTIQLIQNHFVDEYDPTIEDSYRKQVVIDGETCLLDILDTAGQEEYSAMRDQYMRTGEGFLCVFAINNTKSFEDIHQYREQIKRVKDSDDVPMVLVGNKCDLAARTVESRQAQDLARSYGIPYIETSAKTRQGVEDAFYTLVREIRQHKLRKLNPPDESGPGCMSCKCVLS

Compound	HRAS/KRAS (ratio of KD value with respect to HRAS to KD value with respect to KRAS) [1]	NRAS/KRAS (ratio of KD value with respect to NRAS to KD value with respect to KRAS) [2]
CCC[C@H]1C(=O)N[C@@H]([C@@H](C)CC)C(=O)N(C)CC(=O)N(C)[C@H]2C/C=C\CCN(C2=O)[C@@H](CC2CCCCC2)C(=O)N(C)CC(=O)N[C@@H](CCc2ccc(C(F)(F)F)c(OC)c2)C(=O)N2C[C@H](OCC)C[C@H]2C(=O)N(C)C2(CCC2)C(=O)N(C)[C@@H](C2CCCC2)C(=O)N(C)[C@H](C(=O)N(C)C)CC(=O)N1C [PP2336]	A (a compound having 10 or more and less than 20 is denoted as A)	A (a compound having 10 or more and less than 20 is denoted as A)
CCC[C@H]1C(=O)N[C@@H]([C@@H](C)CC)C(=O)N(C2CC2)CC(=O)N(C)[C@H]2C/C=C\CCN(C2=O)[C@@H](CC2CCCCC2)C(=O)N(C)CC(=O)N[C@@H](CCc2ccc(C(F)(F)F)c(OC)c2)C(=O)N2C[C@H](OCC)C[C@H]2C(=O)N(C)C2(CCC2)C(=O)N(C)[C@@H](C(CC)CC)C(=O)N(C)[C@H](C(=O)N(C)C)CC(=O)N1C [PP2337]	A (a compound having 10 or more and less than 20 is denoted as A)	A (a compound having 10 or more and less than 20 is denoted as A)
CCO[C@@H]1C[C@H]2C(=O)N(C)C3(CCC3)C(=O)N(C)[C@@H](C(CC)CC)C(=O)N(C)[C@H](C(=O)N(C)C)CC(=O)N(C)[C@@H](COC)C(=O)N[C@@H]([C@@H](C)CC)C(=O)N(C3CC3)CC(=O)N(C)[C@H]3C/C=C\CCN(C3=O)[C@@H](CC3CCCCC3)C(=O)N(C)CC(=O)N[C@@H](CCc3ccc(C(F)(F)F)c(OC)c3)C(=O)N2C1 [PP2339]	A (a compound having 10 or more and less than 20 is denoted as A)	A (a compound having 10 or more and less than 20 is denoted as A)
CCC[C@H]1C(=O)N[C@@H]([C@@H](C)CC)C(=O)N(C2CC2)CC(=O)N(C)[C@H]2C/C=C\CCN(C2=O)[C@@H](CC2CCCCC2)C(=O)N(C)CC(=O)N[C@@H](CCc2ccc(C(F)(F)F)c(OC)c2)C(=O)N2C[C@H](OCC)C[C@H]2C(=O)N(C)C2(CCC2)C(=O)N(C)[C@@H](C2CCCC2)C(=O)N(C)[C@H](C(=O)N(C)C)CC(=O)N1C [PP2340]	B (a compound having 3 or more and less than 10 is denoted as B)	B (a compound having 3 or more and less than 10 is denoted as B)
CCC[C@H]1C(=O)N[C@@H]([C@@H](C)CC)C(=O)N2CCC[C@H]2C(=O)N(C)[C@H]2C/C=C\CCN(C2=O)[C@@H](CC2CCCCC2)C(=O)N(C)CC(=O)N[C@@H](CCc2ccc(C(F)(F)F)c(OC)c2)C(=O)N2C[C@H](OCC)C[C@H]2C(=O)N(C)C2(CCC2)C(=O)N(C)[C@@H](C(CC)CC)C(=O)N(C)[C@H](C(=O)N(C)C)CC(=O)N1C [PP2341]	A (a compound having 10 or more and less than 20 is denoted as A)	A (a compound having 10 or more and less than 20 is denoted as A)
CCOC[C@H]1C(=O)N[C@@H]([C@@H](C)CC)C(=O)N(C2CC2)CC(=O)N(C)[C@H]2C/C=C\CCN(C2=O)[C@@H](CC2CCCCC2)C(=O)N(C)CC(=O)N[C@@H](CCc2ccc(C(F)(F)F)c(OC)c2)C(=O)N2C[C@H](OCC)C[C@H]2C(=O)N(C)C2(CCC2)C(=O)N(C)[C@@H](C2CCCC2)C(=O)N(C)[C@H](C(=O)N(C)C)CC(=O)N1C [PP2342]	A (a compound having 10 or more and less than 20 is denoted as A)	A (a compound having 10 or more and less than 20 is denoted as A)
CCC[C@H]1C(=O)N[C@@H]([C@@H](C)CC)C(=O)N2CCC[C@H]2C(=O)N(C)[C@H]2C/C=C\CCN(C2=O)[C@@H](CC2CCCCC2)C(=O)N(C)CC(=O)N[C@@H](CCc2ccc(C(F)(F)F)c(OC)c2)C(=O)N2C[C@H](OCC)C[C@H]2C(=O)N(C)C2(CCC2)C(=O)N(C)[C@@H](C2CCCC2)C(=O)N(C)[C@H](C(=O)N(C)C)CC(=O)N1C [PP2344]	A (a compound having 10 or more and less than 20 is denoted as A)	A (a compound having 10 or more and less than 20 is denoted as A)
CCC[C@H]1C(=O)N[C@@H]([C@@H](C)CC)C(=O)N(C)CC(=O)N(C)[C@H]2C/C=C\CCN(C2=O)[C@@H](CC2CCC(F)(F)CC2)C(=O)N(C)CC(=O)N[C@@H](CCc2ccc(C(F)(F)F)c(OC)c2)C(=O)N2C[C@H](OCC)C[C@H]2C(=O)N(C)C2(CCC2)C(=O)N(C)[C@@H](C(CC)CC)C(=O)N(C)[C@H](C(=O)N(C)C)CC(=O)N1C [PP2345]	A (a compound having 10 or more and less than 20 is denoted as A)	A (a compound having 10 or more and less than 20 is denoted as A)
CCOC[C@H]1C(=O)N[C@@H]([C@@H](C)CC)C(=O)N(C)CC(=O)N(C)[C@H]2C/C=C\CCN(C2=O)[C@@H](CC2CCC(F)(F)CC2)C(=O)N(C)CC(=O)N[C@@H](CCc2ccc(C(F)(F)F)c(OC)c2)C(=O)N2C[C@H](OCC)C[C@H]2C(=O)N(C)C2(CCC2)C(=O)N(C)[C@@H](C(CC)CC)C(=O)N(C)[C@H](C(=O)N(C)C)CC(=O)N1C [PP2347]	A (a compound having 10 or more and less than 20 is denoted as A)	A (a compound having 10 or more and less than 20 is denoted as A)
CCC[C@H]1C(=O)N[C@@H]([C@@H](C)CC)C(=O)N(C)CC(=O)N(C)[C@H]2C/C=C\CCN(C2=O)[C@@H](CC2CCC(F)(F)CC2)C(=O)N(C)CC(=O)N[C@@H](CCc2ccc(C(F)(F)F)c(OC)c2)C(=O)N2C[C@H](OCC)C[C@H]2C(=O)N(C)C2(CCC2)C(=O)N(C)[C@@H](C2CCCC2)C(=O)N(C)[C@H](C(=O)N(C)C)CC(=O)N1C [PP2348]	A (a compound having 10 or more and less than 20 is denoted as A)	A (a compound having 10 or more and less than 20 is denoted as A)
CCC[C@H]1C(=O)N[C@@H]([C@@H](C)CC)C(=O)N(C2CC2)CC(=O)N(C)[C@H]2C/C=C\CCN(C2=O)[C@@H](CC2CCC(F)(F)CC2)C(=O)N(C)CC(=O)N[C@@H](CCc2ccc(C(F)(F)F)c(OC)c2)C(=O)N2C[C@H](OCC)C[C@H]2C(=O)N(C)C2(CCC2)C(=O)N(C)[C@@H](C(CC)CC)C(=O)N(C)[C@H](C(=O)N(C)C)CC(=O)N1C [PP2349]	A (a compound having 10 or more and less than 20 is denoted as A)	A (a compound having 10 or more and less than 20 is denoted as A)
CCCOC[C@H]1C(=O)N[C@@H]([C@@H](C)CC)C(=O)N(C)CC(=O)N(C)[C@H]2C/C=C\CCN(C2=O)[C@@H](CC2CCC(F)(F)CC2)C(=O)N(C)CC(=O)N[C@@H](CCc2ccc(C(F)(F)F)c(OC)c2)C(=O)N2C[C@H](OCC)C[C@H]2C(=O)N(C)C2(CCC2)C(=O)N(C)[C@@H](C2CCCC2)C(=O)N(C)[C@H](C(=O)N(C)C)CC(=O)N1C [PP2350]	A (a compound having 10 or more and less than 20 is denoted as A)	A (a compound having 10 or more and less than 20 is denoted as A)
CCOC[C@H]1C(=O)N[C@@H]([C@@H](C)CC)C(=O)N(C2CC2)CC(=O)N(C)[C@H]2C/C=C\CCN(C2=O)[C@@H](CC2CCC(F)(F)CC2)C(=O)N(C)CC(=O)N[C@@H](CCc2ccc(C(F)(F)F)c(OC)c2)C(=O)N2C[C@H](OCC)C[C@H]2C(=O)N(C)C2(CCC2)C(=O)N(C)[C@@H](C(CC)CC)C(=O)N(C)[C@H](C(=O)N(C)C)CC(=O)N1C [PP2351]	A (a compound having 10 or more and less than 20 is denoted as A)	A (a compound having 10 or more and less than 20 is denoted as A)
CCC[C@H]1C(=O)N[C@@H]([C@@H](C)CC)C(=O)N(C2CC2)CC(=O)N(C)[C@H]2C/C=C\CCN(C2=O)[C@@H](CC2CCC(F)(F)CC2)C(=O)N(C)CC(=O)N[C@@H](CCc2ccc(C(F)(F)F)c(OC)c2)C(=O)N2C[C@H](OCC)C[C@H]2C(=O)N(C)C2(CCC2)C(=O)N(C)[C@@H](C2CCCC2)C(=O)N(C)[C@H](C(=O)N(C)C)CC(=O)N1C [PP2352]	A (a compound having 10 or more and less than 20 is denoted as A)	A (a compound having 10 or more and less than 20 is denoted as A)
CCC[C@H]1C(=O)N[C@@H]([C@@H](C)CC)C(=O)N2CCC[C@H]2C(=O)N(C)[C@H]2C/C=C\CCN(C2=O)[C@@H](CC2CCC(F)(F)CC2)C(=O)N(C)CC(=O)N[C@@H](CCc2ccc(C(F)(F)F)c(OC)c2)C(=O)N2C[C@H](OCC)C[C@H]2C(=O)N(C)C2(CCC2)C(=O)N(C)[C@@H](C(CC)CC)C(=O)N(C)[C@H](C(=O)N(C)C)CC(=O)N1C [PP2353]	A (a compound having 10 or more and less than 20 is denoted as A)	A (a compound having 10 or more and less than 20 is denoted as A)

Source: patent publication US20250230193A1, “CYCLIC COMPOUND HAVING SELECTIVE KRAS INHIBITORY EFFECT ON HRAS AND NRAS” (CHUGAI SEIYAKU KABUSHIKI KAISHA, priority 2022, published 2025)
